Source: PubChem BioAssay AID330 (DTP/NCI, 2004)
Values joined by “and” are separate entries in the source; they are usually repeats but may differ in a detail not shown here. Identical values can stand only once. Toxic doses and inconclusive results are not listed.

Tested on: P388 leukemia ip, CD2F1 mice, survival T/C
Assay: NCI In Vivo Anticancer Drug Screen. Data for tumor model P388 Leukemia (intraperitoneal) in CD2F1 (CDF1) mice
Details: endpoint: median survival time, higher = longer survival
Summary of the method: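 Mice carrying the transplanted tumor received test compound or vehicle. Survival was recorded in each group, and the value is the treated-group measurement divided by that of the vehicle-treated control group.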

[1] = dose: 12.5 mg/kg/injection, schedule: Q01DX009 (ip), vehicle: saline with Tween-80
[2] = dose: 25.0 mg/kg/injection, schedule: Q01DX009 (ip), vehicle: saline with Tween-80
[3] = dose: 50.0 mg/kg/injection, schedule: Q01DX009 (ip), vehicle: saline with Tween-80
[4] = dose: 100.0 mg/kg/injection, schedule: Q01DX009 (ip), vehicle: saline with Tween-80
[5] = dose: 200.0 mg/kg/injection, schedule: Q01DX009 (ip), vehicle: saline with Tween-80
[6] = dose: 400.0 mg/kg/injection, schedule: Q01DX009 (ip), vehicle: saline with Tween-80
[7] = dose: 6.25 mg/kg/injection, schedule: Q01DX005 (ip), vehicle: Klucel (hydroxypropylcellulose) (HPC)
[8] = dose: 100.0 mg/kg/injection, schedule: Q01DX001 (ip), vehicle: saline
[9] = dose: 200.0 mg/kg/injection, schedule: Q01DX001 (ip), vehicle: saline
[10] = dose: 50.0 mg/kg/injection, schedule: Q01DX005 (ip), vehicle: Klucel (hydroxypropylcellulose) (HPC)
[11] = dose: 100.0 mg/kg/injection, schedule: Q01DX005 (ip), vehicle: Klucel (hydroxypropylcellulose) (HPC)
[12] = dose: 200.0 mg/kg/injection, schedule: Q01DX005 (ip), vehicle: Klucel (hydroxypropylcellulose) (HPC)
[13] = dose: 50.0 mg/kg/injection, schedule: Q01DX005 (ip), vehicle: saline with Tween-80
[14] = dose: 100.0 mg/kg/injection, schedule: Q01DX005 (ip), vehicle: saline with Tween-80
[15] = dose: 200.0 mg/kg/injection, schedule: Q01DX005 (ip), vehicle: saline with Tween-80
[16] = dose: 50.0 mg/kg/injection, schedule: Q01DX009 (ip), vehicle: saline
[17] = dose: 100.0 mg/kg/injection, schedule: Q01DX009 (ip), vehicle: saline

## NC1=C(O)C(=O)C(c2c[nH]c3ccc(OCc4ccccc4)cc23)O1 (stereo not drawn)
dose: 7.5 mg/kg/injection, schedule: Q01DX005 (ip), vehicle: Klucel (hydroxypropylcellulose) (HPC)
  T/C: 93 % of control
dose: 15.0 mg/kg/injection, schedule: Q01DX005 (ip), vehicle: Klucel (hydroxypropylcellulose) (HPC)
  T/C: 101 % of control
dose: 30.0 mg/kg/injection, schedule: Q01DX005 (ip), vehicle: Klucel (hydroxypropylcellulose) (HPC)
  T/C: 102 % of control and 96 % of control

## CCCCCCCCCCCCSSC(=S)OC(C)C
dose: 50.0 mg/kg/injection, schedule: Q01DX009 (ip), vehicle: saline + Tween-80 + alcohol
  T/C: 100 % of control
dose: 100.0 mg/kg/injection, schedule: Q01DX009 (ip), vehicle: saline + Tween-80 + alcohol
  T/C: 116 % of control
dose: 200.0 mg/kg/injection, schedule: Q01DX009 (ip), vehicle: saline + Tween-80 + alcohol
  T/C: 122 % of control
dose: 400.0 mg/kg/injection, schedule: Q01DX009 (ip), vehicle: saline + Tween-80 + alcohol
  T/C: 119 % of control

## O=C/C=C/n1ccccc1=S
dose: 10.0 mg/kg/injection, schedule: Q01DX001 (ip), vehicle: Klucel (hydroxypropylcellulose) (HPC)
  T/C: 109 % of control
dose: 20.0 mg/kg/injection, schedule: Q01DX001 (ip), vehicle: Klucel (hydroxypropylcellulose) (HPC)
  T/C: 102 % of control

## C/C=C1/C[N+]2(C)CCc3c([nH]c4ccccc34)C2CC1C(CO)C(=O)OC (stereo not drawn)
[1]
  T/C: 96 % of control
[2]
  T/C: 104 % of control
[3]
  T/C: 98 % of control

## O=P(OCC(Br)CBr)(OCC(Br)CBr)OCC(Br)CBr (stereo not drawn)
[4]
  T/C: 112 % of control and 114 % of control
[5]
  T/C: 106 % of control and 109 % of control
[6]
  T/C: 103 % of control and 106 % of control
dose: 800.0 mg/kg/injection, schedule: Q01DX009 (ip), vehicle: saline with Tween-80
  T/C: 109 % of control and 94 % of control

## [CH3][Ga]([CH3])[n]1cccn1
dose: 3.12 mg/kg/injection, schedule: Q01DX005 (ip), vehicle: Klucel (hydroxypropylcellulose) (HPC)
  T/C: 100 % of control
[7]
  T/C: 111 % of control

## CC1[C@@H]2C[C@@H]3O[C@@]34[C@H]3CCC5Cc6nc7c(nc6C[C@@]5(C)C3(O)CC(=O)[C@@]24CO[C@]12OC(C)(C)CC2O)CC1CC[C@@H]2C3=C[C@H]4O[C@@]5(O[C@@](C)(CO)C[C@@H]5O)C(C)[C@@]4(O)[C@]3(C)[C@@H](O)CC2[C@]1(C)C7 (stereo partly drawn)
dose: 12.5 micrograms/kg/injection, schedule: Q01DX009 (ip), vehicle: saline + alcohol
  T/C: 107 % of control
dose: 25.0 micrograms/kg/injection, schedule: Q01DX009 (ip), vehicle: saline + alcohol
  T/C: 109 % of control
dose: 50.0 micrograms/kg/injection, schedule: Q01DX009 (ip), vehicle: saline + alcohol
  T/C: 114 % of control
dose: 100.0 micrograms/kg/injection, schedule: Q01DX009 (ip), vehicle: saline + alcohol
  T/C: 116 % of control

## CCCCCCOc1cccc(OCCCC[N+]2(CC)CCCCC2)c1
dose: 1.56 mg/kg/injection, schedule: Q01DX009 (ip), vehicle: saline
  T/C: 96 % of control
dose: 3.12 mg/kg/injection, schedule: Q01DX009 (ip), vehicle: saline
  T/C: 105 % of control
dose: 6.25 mg/kg/injection, schedule: Q01DX009 (ip), vehicle: saline
  T/C: 91 % of control

## ONC1CC(NO)CC(NO)C1 (stereo not drawn)
[8]
  T/C: 117 % of control
[9]
  T/C: 110 % of control

## c1ccc(N=C(Nc2ccccc2)C(=Nc2ccccc2)Nc2ccccc2)cc1
[10]
  T/C: 100 % of control
[11]
  T/C: 96 % of control
[12]
  T/C: 98 % of control

## CCCCCC/C=N/N1C(=O)C2C3C=CC(O3)C2C1=O (stereo not drawn)
[13]
  T/C: 103 % of control
[14]
  T/C: 108 % of control
[15]
  T/C: 95 % of control

## Clc1c2c(c(Cl)c3c1=Nc1ncccc1O3)=Nc1ncccc1O2
[3]
  T/C: 100 % of control
[4]
  T/C: 96 % of control
[5]
  T/C: 99 % of control

## COc1ccc2c(c1)CCn1c(C)c(COC(=O)NC3CCCCC3)c(COC(=O)NC3CCCCC3)c1-2
dose: 50.0 mg/kg/injection, schedule: Q01DX009 (ip), vehicle: distilled water + Tween-80
  T/C: 151 % of control and 164 % of control
dose: 100.0 mg/kg/injection, schedule: Q01DX009 (ip), vehicle: distilled water + Tween-80
  T/C: 92 % of control

## CCNC(=O)CCC(NS(=O)(=O)c1ccc(NC(=O)c2ccc(Cl)cc2)cc1)C(=O)O (stereo not drawn)
[13]
  T/C: 107 % of control
[14]
  T/C: 104 % of control
[15]
  T/C: 102 % of control

## CC1C=CC(C)c2c(-c3ccccc3)oc(-c3ccccc3)c21 (stereo not drawn)
[4]
  T/C: 95 % of control
[5]
  T/C: 104 % of control
[6]
  T/C: 108 % of control

## Cc1c2ncccc2c(C)c2c1[nH]c1ccccc12
dose: 25.0 mg/kg/injection, schedule: Q04DX002 (ip), vehicle: saline with Tween-80
  T/C: 100 % of control
dose: 50.0 mg/kg/injection, schedule: Q04DX002 (ip), vehicle: saline with Tween-80
  T/C: 91 % of control
dose: 100.0 mg/kg/injection, schedule: Q04DX002 (ip), vehicle: saline with Tween-80
  T/C: 98 % of control
dose: 200.0 mg/kg/injection, schedule: Q04DX002 (ip), vehicle: saline with Tween-80
  T/C: 89 % of control

## CCCCCC(C)COS(=O)(=O)c1ccc([N+](C)(C)C)cc1 (stereo not drawn)
[1]
  T/C: 102 % of control
[2]
  T/C: 103 % of control
[3]
  T/C: 105 % of control

## O=C(O)CN(CCO)CCN(CC(=O)O)CC(=O)O
dose: 12.5 mg/kg/injection, schedule: Q01DX009 (ip), vehicle: saline
  T/C: 100 % of control
[2]
  T/C: 100 % of control
dose: 25.0 mg/kg/injection, schedule: Q01DX009 (ip), vehicle: saline
  T/C: 104 % of control
[3]
  T/C: 95 % of control
[16]
  T/C: 95 % of control
[4]
  T/C: 100 % of control
[17]
  T/C: 98 % of control

## FC(F)(F)c1ccc(Cl)c(NC(=S)SC2CCCCC2)c1
[16]
  T/C: 100 % of control
[17]
  T/C: 100 % of control
dose: 200.0 mg/kg/injection, schedule: Q01DX009 (ip), vehicle: saline
  T/C: 97 % of control

## CCN(CC)C(=S)n1c(=S)nc(N(CC)CC)sc1=S
[7]
  T/C: 109 % of control
dose: 12.5 mg/kg/injection, schedule: Q01DX005 (ip), vehicle: Klucel (hydroxypropylcellulose) (HPC)
  T/C: 98 % of control
dose: 25.0 mg/kg/injection, schedule: Q01DX005 (ip), vehicle: Klucel (hydroxypropylcellulose) (HPC)
  T/C: 108 % of control

## COC(=O)C[C@@]1(C(=O)OC)[C@@H](C(=O)OC)C(C(=O)OC)=NN1C
dose: 12.5 mg/kg/injection, schedule: Q04DX002 (ip), vehicle: Klucel (hydroxypropylcellulose) (HPC)
  T/C: 100 % of control
dose: 25.0 mg/kg/injection, schedule: Q04DX002 (ip), vehicle: Klucel (hydroxypropylcellulose) (HPC)
  T/C: 98 % of control
dose: 50.0 mg/kg/injection, schedule: Q04DX002 (ip), vehicle: Klucel (hydroxypropylcellulose) (HPC)
  T/C: 100 % of control

## CC(=O)N(CCCN1C(=O)c2ccccc2C1=O)c1ccc2c(c1)c(-c1ccccc1)nc1cc([N+](=O)[O-])ccc12
dose: 3.13 mg/kg/injection, schedule: Q01DX009 (ip), vehicle: other
  T/C: 98 % of control
dose: 6.25 mg/kg/injection, schedule: Q01DX009 (ip), vehicle: other
  T/C: 95 % of control
dose: 12.5 mg/kg/injection, schedule: Q01DX009 (ip), vehicle: other
  T/C: 87 % of control
dose: 50.0 mg/kg/injection, schedule: Q01DX009 (ip), vehicle: other
  T/C: 106 % of control
dose: 100.0 mg/kg/injection, schedule: Q01DX009 (ip), vehicle: other
  T/C: 96 % of control

## O=C1c2ccccc2C(=O)C1C(=Nc1ccc(F)cc1)c1ccccc1
[10]
  T/C: 103 % of control
[11]
  T/C: 103 % of control
[12]
  T/C: 99 % of control

## C1OC1CO[C@H]1CO[C@H]2[C@@H]1OC[C@@H]2OCC1CO1 (stereo partly drawn)
dose: 600.0 mg/kg/injection, schedule: Q04DX003 (ip), vehicle: saline
  T/C: 172 % of control

## COc1ccc2nonc2c1
[8]
  T/C: 103 % of control
[9]
  T/C: 103 % of control
dose: 400.0 mg/kg/injection, schedule: Q01DX001 (ip), vehicle: saline
  T/C: 105 % of control

## Cc1n[nH]c(=S)n1N
dose: 50.0 mg/kg/injection, schedule: Q01DX009 (ip), vehicle: Klucel (hydroxypropylcellulose) (HPC)
  T/C: 94 % of control
dose: 100.0 mg/kg/injection, schedule: Q01DX009 (ip), vehicle: Klucel (hydroxypropylcellulose) (HPC)
  T/C: 93 % of control
dose: 200.0 mg/kg/injection, schedule: Q01DX009 (ip), vehicle: Klucel (hydroxypropylcellulose) (HPC)
  T/C: 95 % of control
dose: 400.0 mg/kg/injection, schedule: Q01DX009 (ip), vehicle: Klucel (hydroxypropylcellulose) (HPC)
  T/C: 88 % of control
